Four compounds from ChEMBL document CHEMBL5465560, “Selectivity Literature for EUbOPEN Chemogenomic Library” (2024) can be followed below.

Test [1] deals with T1, Serine/threonine-protein kinase tousled-like 1 (Homo sapiens) (UniProt Q9UKI8).
T1 sequence (whole entry): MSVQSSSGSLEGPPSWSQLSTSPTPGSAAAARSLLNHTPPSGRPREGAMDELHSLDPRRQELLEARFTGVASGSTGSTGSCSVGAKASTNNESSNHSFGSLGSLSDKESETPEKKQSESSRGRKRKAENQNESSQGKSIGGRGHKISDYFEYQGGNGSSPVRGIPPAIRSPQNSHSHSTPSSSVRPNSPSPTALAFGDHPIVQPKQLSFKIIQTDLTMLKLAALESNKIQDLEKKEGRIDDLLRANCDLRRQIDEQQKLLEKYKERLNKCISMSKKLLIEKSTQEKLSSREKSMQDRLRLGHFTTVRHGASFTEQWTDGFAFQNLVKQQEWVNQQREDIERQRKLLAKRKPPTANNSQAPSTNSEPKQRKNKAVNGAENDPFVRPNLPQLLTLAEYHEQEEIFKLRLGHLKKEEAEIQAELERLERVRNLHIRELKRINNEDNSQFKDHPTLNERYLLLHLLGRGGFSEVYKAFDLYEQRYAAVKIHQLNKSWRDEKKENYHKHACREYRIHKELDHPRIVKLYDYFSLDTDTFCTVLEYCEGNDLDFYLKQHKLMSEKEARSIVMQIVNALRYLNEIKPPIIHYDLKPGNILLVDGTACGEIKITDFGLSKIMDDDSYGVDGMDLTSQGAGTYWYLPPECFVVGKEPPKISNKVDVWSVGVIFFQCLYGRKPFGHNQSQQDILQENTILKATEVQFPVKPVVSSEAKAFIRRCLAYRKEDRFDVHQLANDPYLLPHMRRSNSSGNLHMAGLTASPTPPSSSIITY
The test can be described thus: Selectivity interaction (LanthaScreen Eu Kinase Binding Assay) EUB0001632a TLK1. The conditions noted are these: at 10 µM. In general terms: TR-FRET usually uses a lanthanide donor and a delayed reading to cut background.

Test [2] addresses RAC-alpha serine/threonine-protein kinase (Homo sapiens, UniProt P31749). The test is described as follows: Selectivity interaction (KinomeScan (DiscoverX)) EUB0000595a AKT1. The conditions noted are these: at 10 µM.
For test [3], the target named is T2, Muscarinic acetylcholine receptor M2 (Homo sapiens) (UniProt P08172).
T2 sequence (whole entry): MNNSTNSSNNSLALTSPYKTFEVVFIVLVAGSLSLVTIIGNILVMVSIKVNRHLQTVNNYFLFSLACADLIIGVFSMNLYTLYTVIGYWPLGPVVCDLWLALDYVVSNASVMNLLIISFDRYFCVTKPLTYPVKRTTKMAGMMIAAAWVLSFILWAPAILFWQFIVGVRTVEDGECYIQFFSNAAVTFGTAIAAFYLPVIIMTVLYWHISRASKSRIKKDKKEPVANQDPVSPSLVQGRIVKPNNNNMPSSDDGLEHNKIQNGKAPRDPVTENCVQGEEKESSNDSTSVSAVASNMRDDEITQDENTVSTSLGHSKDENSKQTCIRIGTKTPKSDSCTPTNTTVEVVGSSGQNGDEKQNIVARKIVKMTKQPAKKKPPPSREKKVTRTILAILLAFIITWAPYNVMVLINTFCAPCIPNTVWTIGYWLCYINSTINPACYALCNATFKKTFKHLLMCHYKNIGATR
The test is described as follows: Selectivity interaction (Safety Panel 44tm (Eurofins)) EUB0000162b CHRM2. The conditions noted are these: at 10 µM.

For test [4], the target named is T3, Interleukin-1 receptor-associated kinase 3 (Homo sapiens) (UniProt Q9Y616).
T3 sequence (whole entry): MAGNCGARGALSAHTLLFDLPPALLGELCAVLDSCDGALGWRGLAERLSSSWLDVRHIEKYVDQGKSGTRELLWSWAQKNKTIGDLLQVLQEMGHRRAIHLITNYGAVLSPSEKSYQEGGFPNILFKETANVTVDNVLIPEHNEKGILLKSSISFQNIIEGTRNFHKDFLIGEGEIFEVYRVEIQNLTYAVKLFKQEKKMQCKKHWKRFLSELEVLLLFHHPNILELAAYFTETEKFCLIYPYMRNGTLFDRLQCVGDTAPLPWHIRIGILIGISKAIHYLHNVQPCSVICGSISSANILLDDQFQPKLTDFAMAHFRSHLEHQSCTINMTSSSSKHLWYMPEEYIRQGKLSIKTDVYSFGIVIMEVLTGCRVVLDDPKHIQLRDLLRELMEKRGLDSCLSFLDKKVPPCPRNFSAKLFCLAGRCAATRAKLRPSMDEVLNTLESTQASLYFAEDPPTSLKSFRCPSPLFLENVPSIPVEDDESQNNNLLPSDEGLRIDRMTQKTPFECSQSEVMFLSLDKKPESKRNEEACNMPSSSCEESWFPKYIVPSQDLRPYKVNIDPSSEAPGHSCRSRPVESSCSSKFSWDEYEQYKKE
The test can be described thus: Selectivity interaction (KinomeScan (DiscoverX)) EUB0001049a IRAK3. The conditions noted are these: at 1 µM.

The structures appear in SMILES notation.

Sequence of RAC-alpha serine/threonine-protein kinase (P31749 whole entry): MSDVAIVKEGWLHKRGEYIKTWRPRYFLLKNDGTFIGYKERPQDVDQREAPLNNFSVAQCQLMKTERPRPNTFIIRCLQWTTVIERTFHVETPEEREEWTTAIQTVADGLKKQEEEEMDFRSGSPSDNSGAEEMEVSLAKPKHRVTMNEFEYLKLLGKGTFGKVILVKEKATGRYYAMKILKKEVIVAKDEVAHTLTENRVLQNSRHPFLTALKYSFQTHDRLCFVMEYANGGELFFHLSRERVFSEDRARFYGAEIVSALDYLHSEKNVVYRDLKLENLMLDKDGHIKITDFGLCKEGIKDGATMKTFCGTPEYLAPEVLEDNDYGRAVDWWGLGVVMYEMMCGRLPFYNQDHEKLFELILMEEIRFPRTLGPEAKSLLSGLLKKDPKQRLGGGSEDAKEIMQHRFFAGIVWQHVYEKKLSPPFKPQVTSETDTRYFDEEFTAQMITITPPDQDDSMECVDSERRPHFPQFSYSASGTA

`Cn1cc(-n2cnc3c(NCc4nc5cc(Cl)c(Cl)cc5[nH]4)nc(N4CCOCC4)nc32)cn1` yielded a % of inhibition in test [1] of 5.47%. As for `COCC(=O)NC/C=C/c1ccc2ncnc(Nc3ccc(Oc4ccc(C)nc4)c(C)c3)c2c1` [CP-724714], the % of control in test [2] is 100%. As to `CN(C)C(=O)Cn1cc(-c2ccc(-c3cncc4ccccc34)cc2)cn1`, the % of control in test [3] was found to be 84%. Take `COc1cc(Nc2nc(C)cc(-c3cnn4nc(OC)ccc34)n2)cc(C(F)(F)F)c1`: the % of control in test [4] was determined as 89%.
